Here are results for one substance from patent US20070244097A1 (priority 2003, published 2007).

This test deals with α7 nAChR subtype (Rattus norvegicus, UniProt Q05941). It is filed as binding. The conditions noted are these: read-out: KD (saturation curve, one site model).
Chain of α7 nAChR subtype (Q05941 23-502 limits assumed): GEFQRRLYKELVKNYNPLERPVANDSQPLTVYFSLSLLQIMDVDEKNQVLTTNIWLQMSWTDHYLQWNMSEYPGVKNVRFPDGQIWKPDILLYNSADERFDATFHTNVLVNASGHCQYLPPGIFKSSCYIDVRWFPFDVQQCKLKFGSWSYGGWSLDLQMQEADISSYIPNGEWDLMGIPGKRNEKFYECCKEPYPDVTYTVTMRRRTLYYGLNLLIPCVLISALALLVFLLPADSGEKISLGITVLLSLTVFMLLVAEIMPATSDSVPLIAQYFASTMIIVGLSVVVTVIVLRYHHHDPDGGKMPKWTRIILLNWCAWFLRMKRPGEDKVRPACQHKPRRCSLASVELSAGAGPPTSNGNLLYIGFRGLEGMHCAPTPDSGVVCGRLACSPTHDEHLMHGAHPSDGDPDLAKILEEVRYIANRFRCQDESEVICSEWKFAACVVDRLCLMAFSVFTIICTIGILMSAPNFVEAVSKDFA

For ^125I-α-Bungarotoxin [^125I-α-BTX], the Kd was found to be 1.67 nM.
